Values joined by “and” are separate entries in the source; they are usually repeats but may differ in a detail not shown here. Equal values may be shown once.

The nature of this data set: Propofol phase-solubility tests with cyclodextrins according to the method of Higuchi and Connors. The following applies: 25 °C, water, thermodynamic from solid. As to the method:
A large excess of propofol is added to 1.4 ml of the appropriate cyclodextrin solution. The resulting mixtures are vortexed for about 5 min and stirred at a temperature 25±0.5° C. for 24 hours. About 1 ml of the solution is transferred using a Pasteur pipette into an Eppendorf tube. Afterwards, these tubes are centrifuged for 30 min at 13,200 rpm. Afterwards, 40 μl of the aqueous phase are sampled and then diluted to 1/10 in ethanol and to 40/1,000 in a solution of acetonitrile and an ammonia buffer pH 9.2. Afterwards, these samples are filtered through a 0.2 μm filter and then put in vial before analysis by high-performance liquid chromatography with UV detection. The injection volume was 10 microliters (cf. injection loop). […] The stability constants Kc are estimated from the slope of the line of the phase-solubility diagram according to the following equation: Kc=slope/S0 (1−slope).
The stability constant Kc is calculated from the slope of the line of the phase-solubility diagram according to the following equation: Kc=slope/S0(1−slope).
The used 2-hydropropyl-β-cyclodextrin is still that one selected before (HPB-LB). […]
The results of the solubility tests have been analysed again more particularly with the complexation efficiency (CE), calculated using the equation: […]

In the case of `CC(C)c1cccc(C(C)C)c1O` [propofol, 2,6-bis(propan-2-yl)phenol], the solubility at 24 h was 1070 µM and 190 µg/mL.

The term solubility denotes how much of the substance goes into solution per volume. A low value points to a poorly soluble substance.
